One data set addresses T1, ovine COX-1 (Ovis aries, UniProt P05979).
T1 construct: purchased Cayman Chemical Item No. 560131
T1 sequence (P05979 25-600): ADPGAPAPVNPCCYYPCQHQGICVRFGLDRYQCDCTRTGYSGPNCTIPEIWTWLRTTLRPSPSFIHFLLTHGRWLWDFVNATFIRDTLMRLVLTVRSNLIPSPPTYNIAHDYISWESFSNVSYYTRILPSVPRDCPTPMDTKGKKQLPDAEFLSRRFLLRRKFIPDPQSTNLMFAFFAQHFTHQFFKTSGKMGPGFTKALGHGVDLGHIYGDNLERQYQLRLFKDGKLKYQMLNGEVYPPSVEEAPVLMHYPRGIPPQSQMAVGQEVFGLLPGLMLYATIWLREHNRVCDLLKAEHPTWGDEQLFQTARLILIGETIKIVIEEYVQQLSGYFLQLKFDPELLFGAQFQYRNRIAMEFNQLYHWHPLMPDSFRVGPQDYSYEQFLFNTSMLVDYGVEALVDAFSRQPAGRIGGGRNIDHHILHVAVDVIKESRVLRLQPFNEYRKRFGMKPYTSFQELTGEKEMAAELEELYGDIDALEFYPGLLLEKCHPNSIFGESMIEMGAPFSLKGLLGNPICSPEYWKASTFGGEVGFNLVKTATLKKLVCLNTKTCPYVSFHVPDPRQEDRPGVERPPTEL
Briefly: COX-1 inhibition, ELISA kit. In kind it is biochemical. As to conditions: average of three determinations. The method, then: (§1) The compounds’ abilities were evaluated in vitro to inhibit ovine COX-1 and human recombinant COX-2 isozymes using ELISA [46].
Background: In an ELISA, binding on a coated surface is turned into a signal by an enzyme label.

The subject of another data set is fibroblast cells. Briefly: MTT test, cytotoxicity. The data set is classed as cell-based. As to conditions: 24 h, read-out: IC50 against fibroblast cells. The method, then:
The cytotoxicity of the IA was investigated during 24 h at various concentrations against fibroblast cell lines using the MTT test. […].
The MTT Reagent was purchased from Biospes (Biospes, China, Cat n#BAR1005-1), and used according to the manufacturer’s instructions. Twenty-four hours prior to the MTT experiment, breast cancer cell lines (MCF-7 Cell Line) were seeded at a concentration of 5 × 10^4 cells per well in 96-well microplates to facilitate microplate adherence. Various agent concentrations were administered to the cultured cells. The cells were treated with 10 μL of MTT solution, and 100 μL of serum-free medium was added to every well. The plate was kept at 37 °C for 4 h in a CO2 incubator. Then, each well received 100 μL of formazan diluent buffer. The plate was incubated at 37 °C for the entire night after being wrapped in foil and given a 15-min orbital shake. An ELISA plate reader (Stat Fax 2200, Awareness Technologies, Palm City, FL, USA) was used to measure color absorbance in the OD range of 450–630 nm.
For every sample, the mean of the three readings was computed. Cell survival was calculated at the very end using the following equation:(1) % of cell viability= Asample/Acontrol×100
Acontrol is the absorbance of the cell culture after treatment with formazan buffer and MTT without added any drug. […]
On the technique in general: Tetrazolium dyes change colour on reduction, which living cells bring about.

The next data set has as its target T2, human recombinant COX-2 (Homo sapiens, UniProt P35354).
T2 construct: purchased Cayman Chemical Item No. 560131
T2 sequence (P35354 18-604): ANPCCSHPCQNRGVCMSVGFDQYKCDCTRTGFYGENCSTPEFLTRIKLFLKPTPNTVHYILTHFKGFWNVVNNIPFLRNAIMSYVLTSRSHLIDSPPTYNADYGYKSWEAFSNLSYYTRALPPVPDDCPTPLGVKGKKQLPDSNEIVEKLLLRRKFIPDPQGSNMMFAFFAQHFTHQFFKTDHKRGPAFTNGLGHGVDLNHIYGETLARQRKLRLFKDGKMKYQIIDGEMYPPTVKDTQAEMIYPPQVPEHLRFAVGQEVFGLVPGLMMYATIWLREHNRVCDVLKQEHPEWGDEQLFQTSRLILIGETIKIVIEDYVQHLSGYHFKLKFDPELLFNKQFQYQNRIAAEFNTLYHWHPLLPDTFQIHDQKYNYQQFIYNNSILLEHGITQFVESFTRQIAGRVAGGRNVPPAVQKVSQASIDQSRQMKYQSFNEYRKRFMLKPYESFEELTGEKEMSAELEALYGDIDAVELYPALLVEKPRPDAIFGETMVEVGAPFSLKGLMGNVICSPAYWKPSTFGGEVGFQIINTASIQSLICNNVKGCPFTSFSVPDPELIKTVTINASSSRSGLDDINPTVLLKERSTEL
The data set is described as follows: COX-2 inhibition, ELISA kit. In kind it is biochemical. On the procedure: as §1

The next data set relates to COX-1. The data set is described as follows: Western blotting of COX-1. For orientation: Immunoblotting shows a protein as a band on a membrane.
Data set [1] is described as follows: Solubility in different solvents. In kind it is physicochemical. As to conditions: qualitative.

Where two headings read alike, the source gives them in different places.

`CC(=O)CC(C)=NNC(=O)C(C)c1ccc(CC(C)C)cc1` (stereo not drawn) [IA, (E)-2-(4-isobutylphenyl)-N′-(4-oxopentan-2-ylidene) propane hydrazide]: the melting point was determined as 135 °C. The molecule also displayed an IC50 at ovine COX-1 of 10.2 µM. Further, in the data set with fibroblast cells (MTT test), the IC50 came to 3.43 µM. For the same molecule, at human recombinant COX-2 (Selectivity index (COX-1 IC50/COX-2 IC50)), the “COX-2 S.I.” value turned out to be 2.8. For the same molecule, the IC50 on human recombinant COX-2 (average of three determinations) worked out at 3.6 µM. In the data set with COX-1, this molecule gave an IC50 of 0.946 µM. Besides, the Solubility in solvents entry in data set [1] is “soluble in alcohols, DMSO, and DMF”.

Take `CC(C)Cc1ccc(C(C)C(=O)O)cc1` (stereo not drawn) [Ibuprofen, reference compound]: the IC50 was found to be 31.4 µM with fibroblast cells and […] with COX-1.

One may read the IC50 as the concentration that inhibits the measured activity by half. The term melting point denotes the temperature of the solid-liquid transition.

Source of the values: paper PMC10971055 (International Journal of Molecular Sciences, 2024).
